The term CC50 denotes the concentration giving 50% cytotoxicity. Lower therefore signals harm at low concentration.

Structures can show the parent of a compound that is named as a salt.

One series can be described thus: in vitro. The note with it: rat, gh3-tre-luc cells, AC50 (uM) modified / 1000.
The molecule `Nc1nc(-c2ccccc2)cs1` [2-Amino-4-phenylthiazole hydrobromide hydrate] yielded a CC50 at 24 h greater than 90 µM.

Molecule `Nc1nc(CC(=O)O)cs1` [2-Amino-4-thiazoleacetic acid] registered a CC50 at 24 h greater than 90 µM.

The molecule `Cc1cc2nc(N)sc2cc1C` [2-Amino-5,6-dimethylbenzothiazole] had a CC50 at 24 h greater than 90 µM.

Regarding `Nc1nnc(-c2ccc([N+](=O)[O-])o2)o1` [2-Amino-5-(5-nitro-2-furyl)-1,3,4-oxadiazole], the cytotoxic concentration (CC50) at 24 h is 59 µM. This counts as double-digit micromolar.

With `Cc1cc(N)c(S(=O)(=O)O)cc1Cl` [2-Amino-5-chloro-4-methylbenzenesulfonic acid], the CC50 at 24 h is greater than 90 µM.

Turning to `Cc1ccc(N)c(S(=O)(=O)O)c1` [2-Amino-5-methylbenzenesulfonic acid], the CC50 at 24 h is greater than 90 µM.

On to `Nc1ccc([N+](=O)[O-])cc1O` [2-Amino-5-nitrophenol], for which the CC50 at 24 h was 82.7 µM.

In the case of `Nc1ncc([N+](=O)[O-])s1` [2-Amino-5-nitrothiazole], the CC50 at 24 h is greater than 90 µM.

Consider `CCOc1ccc2nc(N)sc2c1` [2-Amino-6-ethoxybenzothiazole], for which the half-maximal cytotoxic concentration (CC50) at 24 h is greater than 90 µM.

Regarding `COc1ccc2nc(N)sc2c1` [2-Amino-6-methoxybenzothiazole], the cytotoxic concentration (CC50) at 24 h was greater than 90 µM.

As for `CC(C)CCCC(C)N` (stereo not shown) [2-Amino-6-methylheptane], the CC50 at 24 h is greater than 50 µM.

`CC(C)NC(=O)c1ccccc1N` [2-Amino-N-(1-methylethyl)benzamide] yielded a cytotoxic concentration (CC50) at 24 h greater than 90 µM.

The molecule `CN(C1CCCCC1)S(=O)(=O)c1ccccc1N` [2-Amino-N-cyclohexyl-N-methylbenzenesulfonamide] came in with a 50% cytotoxic concentration (CC50) at 24 h greater than 90 µM.

Consider `Cc1cccc(O)c1N` [2-Amino-m-cresol], for which it took 66.6 µM to reach half-maximal cytotoxicity (CC50 at 24 h).

Molecule `Nc1ccc2cc3ccccc3cc2c1` [2-Aminoanthracene] yielded a CC50 at 24 h greater than 90 µM.

Molecule `Nc1ccc2c(c1)C(=O)c1ccccc1C2=O` [2-Aminoanthraquinone] yielded a cytotoxic concentration (CC50) at 24 h greater than 90 µM.

In turn, `NC(=O)c1ccccc1N` [2-Aminobenzamide] registered a CC50 at 24 h greater than 90 µM.

`Nc1cc(S(=O)(=O)O)ccc1S(=O)(=O)O` [2-Aminobenzene-1,4-disulfonic acid] displayed a half-maximal cytotoxic concentration (CC50) at 24 h greater than 90 µM.

In the case of `Nc1nc2ccccc2[nH]1` [2-Aminobenzimidazole], the CC50 at 24 h was greater than 90 µM.

The molecule `Nc1ccccc1Nc1ccccc1` [2-Aminodiphenylamine] displayed a CC50 at 24 h of 14.7 µM.

`CCCCCC(C)N` (stereo not shown) [2-Aminoheptane sulfate] showed a cytotoxic concentration (CC50) at 24 h greater than 50 µM.

Turning to `Nc1ccccc1O` [2-Aminophenol], half-maximal cytotoxicity (CC50 at 24 h) was put at 40.6 µM. In other words, the double-digit micromolar range.

For the molecule `Nc1ccccn1` [2-Aminopyridine], the CC50 at 24 h is greater than 90 µM.

Consider `Nc1nccs1` [2-Aminothiazole], for which the CC50 at 24 h was greater than 90 µM.

The molecule `NC(=O)Nc1nc2ccccc2[nH]1` [2-Benzimidazolylurea] registered a CC50 at 24 h greater than 90 µM.

`O=Cc1cc2ccccc2o1` [2-Benzofurancarboxaldehyde] registered a CC50 at 24 h greater than 90 µM.

As to `O=c1[nH]c2ccccc2o1` [2-Benzoxazolinone], the half-maximal cytotoxic concentration (CC50) at 24 h was greater than 90 µM.

The molecule `CCC(Cc1ccccc1)(C(=O)c1ccc(N2CCOCC2)cc1)N(C)C` (stereo not shown) [2-Benzyl-2-(dimethylamino)-1-[4-(morpholin-4-yl)phenyl]butan-1-one] had a half-maximal cytotoxic concentration (CC50) at 24 h of 68.2 µM.

Regarding `Nc1ccccc1-c1ccccc1` [2-Biphenylamine], the 50% cytotoxic concentration (CC50) at 24 h was greater than 90 µM.

`O=C(CBr)c1ccc(O)cc1` [2-Bromo-4-hydroxyacetophenone] came in with a 50% cytotoxic concentration (CC50) at 24 h greater than 90 µM.

Molecule `O=Cc1cc(O)ccc1Br` [2-Bromo-5-hydroxy-benzaldehyde] displayed a half-maximal cytotoxic concentration (CC50) at 24 h greater than 90 µM.

Turning to `Brc1nc2ccccc2s1` [2-Bromobenzothiazole], the CC50 at 24 h is greater than 90 µM.

`Brc1ccccc1-c1ccccc1` [2-Bromobiphenyl] returned a cytotoxic concentration (CC50) at 24 h greater than 90 µM.

Take `CCCCCCCCCCCCCCC(Br)C(=O)O` (stereo not shown) [2-Bromohexadecanoic acid]: the CC50 at 24 h is greater than 90 µM.

Turning to `Cc1ccccc1Br` [2-Bromotoluene], the half-maximal cytotoxic concentration (CC50) at 24 h is greater than 90 µM.

In turn, `CCC(C)N` (stereo not shown) [2-Butanamine] came in with a CC50 at 24 h greater than 90 µM.

Regarding `CCC(C)S` (stereo not shown) [2-Butanethiol], the CC50 at 24 h is greater than 4 µM.

`CCC(C)O` (stereo not shown) [2-Butanol]: the CC50 at 24 h was greater than 90 µM.

Consider `CCC(C)=NO` [2-Butanone oxime], for which the CC50 at 24 h is greater than 90 µM.

With `OCC=CCO` [2-Butene-1,4-diol], the half-maximal cytotoxic concentration (CC50) at 24 h is greater than 90 µM.

The molecule `COC(=O)/C=C\C(=O)O` [2-Butenedioic acid (2Z)-, monomethyl ester] returned a cytotoxic concentration (CC50) at 24 h greater than 90 µM.

Consider `C/C=C/C(=O)O` [2-Butenoic acid], for which the 50% cytotoxic concentration (CC50) at 24 h was greater than 90 µM.

In the case of `CCCCOCCO` [2-Butoxyethanol], the CC50 at 24 h was greater than 90 µM.

As for `CCCCOCCOC(C)=O` [2-Butoxyethyl acetate], the CC50 at 24 h was greater than 90 µM.

Consider `CCCCN1C(=O)c2ccccc2C1=O` [2-Butyl-1H-isoindole-1,3(2H)-dione], for which the 50% cytotoxic concentration (CC50) at 24 h is greater than 90 µM.

Consider `CCCCC(CC)(CO)CO` [2-Butyl-2-ethyl-1,3-propanediol], for which the CC50 at 24 h was greater than 90 µM.

Consider `CCCCCCC(CO)CCCC` (stereo not shown) [2-Butyloctan-1-ol], for which the 50% cytotoxic concentration (CC50) at 24 h is greater than 90 µM.

Regarding `OCC#CCO` [2-Butyne-1,4-diol], the cytotoxic concentration (CC50) at 24 h was greater than 90 µM.

In turn, `C=CC(=O)OCCC(=O)O` [2-Carboxyethyl acrylate] yielded a CC50 at 24 h greater than 100 µM.

The molecule `O=[N+]([O-])c1cc(C(F)(F)F)cc([N+](=O)[O-])c1Cl` [2-Chloro-1,3-dinitro-5-(trifluoromethyl)benzene] returned a cytotoxic concentration (CC50) at 24 h greater than 90 µM.

Consider `Nc1ccc(N)c(Cl)c1` [2-Chloro-1,4-diaminobenzene sulfate], for which the half-maximal cytotoxic concentration (CC50) at 24 h was greater than 90 µM.

With `CCOc1ccc(OCC)c(Cl)c1` [2-Chloro-1,4-diethoxybenzene], the cytotoxic concentration (CC50) at 24 h is greater than 90 µM.

Take `COc1ccc(OC)c(Cl)c1` [2-Chloro-1,4-dimethoxybenzene]: the CC50 at 24 h is greater than 90 µM.

In the case of `O=[N+]([O-])c1ccc(F)c(Cl)c1` [2-Chloro-1-fluoro-4-nitrobenzene], the CC50 at 24 h was greater than 90 µM.

`Cc1ccc([N+](=O)[O-])cc1Cl` [2-Chloro-1-methyl-4-nitrobenzene] returned a CC50 at 24 h greater than 90 µM.

For the molecule `Cc1cc(O)c(Cl)cc1C` [2-Chloro-4,5-dimethylphenol], the CC50 at 24 h was greater than 90 µM.

In turn, `Cc1cc(C)c(N)c(Cl)c1` [2-Chloro-4,6-dimethylaniline] showed a CC50 at 24 h greater than 90 µM.

With `NC(=O)c1ccc([N+](=O)[O-])cc1Cl` [2-Chloro-4-nitrobenzamide], the cytotoxic concentration (CC50) at 24 h was greater than 90 µM.

`Oc1ccc(-c2ccccc2)cc1Cl` [2-Chloro-4-phenylphenol]: it took 81 µM to reach half-maximal cytotoxicity (CC50 at 24 h).

In the case of `Cc1ccc(Cl)c(O)c1` [2-Chloro-5-methylphenol], the CC50 at 24 h is greater than 50 µM.

Turning to `O=C(Nc1ccccc1)c1cc([N+](=O)[O-])ccc1Cl` [2-Chloro-5-nitro-N-phenylbenzamide], the cytotoxic concentration (CC50) at 24 h came to 49.9 µM.

Consider `Clc1ccc(C(Cl)(Cl)Cl)cn1` [2-Chloro-5-trichloromethylpyridine], for which the 50% cytotoxic concentration (CC50) at 24 h was greater than 90 µM.

As to `CC(=O)C(Cl)C(=O)N(C)C` (stereo not shown) [2-Chloro-N,N-dimethyl-3-oxobutanamide], the CC50 at 24 h was greater than 90 µM.

As to `Cc1cc(Br)ccc1NC(=O)CCl` [2-Chloro-N-(2-methyl-4-bromophenyl)acetamide], the cytotoxic concentration (CC50) at 24 h was determined as 22.1 µM. That is a double-digit micromolar value.

For `O=C(CCl)Nc1ccccc1` [2-Chloro-N-phenylacetamide], the CC50 at 24 h came to 23.7 µM.

For the molecule `Clc1ccc2cc3ccccc3cc2c1` [2-Chloroanthracene], the cytotoxic concentration (CC50) at 24 h is greater than 90 µM.

Staying with this series, now noted: rat, gh3-tre-luc cells, AC50 (uM) modified / 1000, Tox21_110001=Tox21_200336; viability, 1 nM T3 present, 24 h.
For `CC(C)(Cl)[N+](=O)[O-]` [2-Chloro-2-nitropropane], the CC50 at 24 h was greater than 90 µM.

Staying with this series, now noted: rat, gh3-tre-luc cells, AC50 (uM) modified / 1000, Tox21_110001=Tox21_200356; viability, 1 nM T3 present, 24 h.
The molecule `CC(C)Br` [2-Bromopropane] had a half-maximal cytotoxic concentration (CC50) at 24 h greater than 90 µM.

The series is the same for the next values; noted with them: rat, gh3-tre-luc cells, AC50 (uM) modified / 1000, Tox21_110001=Tox21_200633; viability, 1 nM T3 present, 24 h.
Regarding `CCC(C)Br` (stereo not shown) [2-Bromobutane], the CC50 at 24 h was greater than 100 µM.

The series is the same for the next values; noted with them: rat, gh3-tre-luc cells, AC50 (uM) modified / 1000, Tox21_110001=Tox21_200802; viability, 1 nM T3 present, 24 h.
Molecule `Nc1ccccc1Cl` [2-Chloroaniline] came in with a half-maximal cytotoxic concentration (CC50) at 24 h greater than 90 µM.

The same series, now with this note: rat, gh3-tre-luc cells, AC50 (uM) modified / 1000, Tox21_110001=Tox21_201036; viability, 1 nM T3 present, 24 h.
On to `OCCBr` [2-Bromo-1-ethanol], for which the CC50 at 24 h is greater than 90 µM.

The same series, now with this note: rat, gh3-tre-luc cells, AC50 (uM) modified / 1000, Tox21_110001=Tox21_201417; viability, 1 nM T3 present, 24 h.
`CC(Br)C(=O)O` (stereo not shown) [2-Bromopropionic acid]: the cytotoxic concentration (CC50) at 24 h is greater than 90 µM.

Staying with this series, now noted: rat, gh3-tre-luc cells, AC50 (uM) modified / 1000, Tox21_110001=Tox21_202075; viability, 1 nM T3 present, 24 h.
Consider `O=C(CCl)c1ccccc1` [2-Chloroacetophenone], for which the 50% cytotoxic concentration (CC50) at 24 h is greater than 90 µM.

Still in this series, the particulars now being: rat, gh3-tre-luc cells, AC50 (uM) modified / 1000, Tox21_110001=Tox21_202941; viability, 1 nM T3 present, 24 h.
The molecule `O=C(CBr)c1ccccc1` [2-Bromoacetophenone] registered a CC50 at 24 h greater than 90 µM.

Staying with this series, now noted: rat, gh3-tre-luc cells, AC50 (uM) modified / 1000, Tox21_110001=Tox21_202971; viability, 1 nM T3 present, 24 h.
Take `Nc1ccc2c(c1)Cc1ccccc1-2` [2-Aminofluorene]: the CC50 at 24 h is greater than 90 µM.

The same series, now with this note: rat, gh3-tre-luc cells, AC50 (uM) modified / 1000, Tox21_110001=Tox21_300045; viability, 1 nM T3 present, 24 h.
`O=C(CCl)c1ccccc1` [2-Chloroacetophenone] returned a CC50 at 24 h of 62.3 µM.

Staying with this series, now noted: rat, gh3-tre-luc cells, AC50 (uM) modified / 1000, Tox21_110001=Tox21_300964; viability, 1 nM T3 present, 24 h.
In the case of `O=C(CCl)NCO` [2-Chloro-N-(hydroxymethyl)acetamide], the 50% cytotoxic concentration (CC50) at 24 h is greater than 90 µM.

Still in this series, the particulars now being: rat, gh3-tre-luc cells, AC50 (uM) modified / 1000, Tox21_110001=Tox21_301105; viability, 1 nM T3 present, 24 h.
`Nc1nc(N)nc(Cl)n1` [2-Chloro-4,6-diamino-1,3,5-triazine] had a cytotoxic concentration (CC50) at 24 h greater than 90 µM.

Staying with this series, now noted: rat, gh3-tre-luc cells, AC50 (uM) modified / 1000, Tox21_110001=Tox21_302045; viability, 1 nM T3 present, 24 h.
For `NCCOS(=O)(=O)O` [2-Aminoethyl hydrogen sulfate], the CC50 at 24 h was greater than 90 µM.

The record behind these values is paper PMC6792352, “Limited Chemical Structural Diversity Found to Modulate Thyroid Hormone Receptor in the Tox21 Chemical Library” (Environmental Health Perspectives, 2019).
